{
  "source": "ChEMBL document CHEMBL1127657",
  "about": "“Haloperidol-based irreversible inhibitors of the HIV-1 and HIV-2 proteases” (J Med Chem, 1994)",
  "key": {"[1]": {"target": "Human immunodeficiency virus type 1 protease (Human immunodeficiency virus 1, UniProt Q72874)", "experiment": "In vitro inhibition of recombinant HIV-1 protease expressed in Escherichia coli strain D1210"}, "[2]": {"target": "T1, Human rhinovirus A protease (Human rhinovirus sp.) (UniProt Q4U254)", "T1 sequence (whole entry)": "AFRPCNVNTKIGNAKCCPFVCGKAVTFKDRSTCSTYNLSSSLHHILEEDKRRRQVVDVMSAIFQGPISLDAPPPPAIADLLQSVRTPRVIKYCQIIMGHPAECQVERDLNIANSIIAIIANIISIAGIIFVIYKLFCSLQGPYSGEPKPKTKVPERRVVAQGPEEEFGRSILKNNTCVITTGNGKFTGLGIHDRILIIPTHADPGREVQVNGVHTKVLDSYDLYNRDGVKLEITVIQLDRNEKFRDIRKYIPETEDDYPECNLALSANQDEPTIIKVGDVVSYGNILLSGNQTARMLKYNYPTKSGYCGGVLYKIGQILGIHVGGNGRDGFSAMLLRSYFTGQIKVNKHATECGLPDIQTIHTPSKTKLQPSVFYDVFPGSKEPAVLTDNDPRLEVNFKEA", "details": "Human immunodeficiency virus 2"}, "[3]": {"target": "Human immunodeficiency virus type 1 protease (Human immunodeficiency virus 1) (UniProt Q72874)", "description": "The irreversibility of the inactivation reaction of HIV-1 PR was assessed"}},
  "data": [
    {"smiles": "OC1(C#CC2(c3ccccc3)CO2)CCN(Cc2ccccc2)CC1", "note": "(centres undefined)", "values": [
      {"measurement": "IC50", "setting": "[1]", "value": 725, "unit": "µM"}
    ]},
    {"smiles": "O=C(C#CCN1CCC(O)(c2ccc(Cl)cc2)CC1)c1cccc(-c2ccccc2)c1", "values": [
      {"measurement": "IC50", "setting": "[1]", "value": 63, "unit": "µM"}
    ]},
    {"smiles": "OC1(c2ccc(Cl)cc2)CCN(CC#CC2(c3ccccc3)CO2)CC1", "note": "(centres undefined)", "values": [
      {"measurement": "IC50", "setting": "[1]", "value": 150, "unit": "µM"}
    ]},
    {"smiles": "O=C(C#CCN1CCC(O)(c2ccc(Cl)cc2)CC1)c1ccccc1", "values": [
      {"measurement": "IC50", "setting": "[1]", "value": 20, "unit": "µM"}
    ]},
    {"smiles": "O=C(/C=C/CN1CCC(O)(c2ccc(Cl)cc2)CC1)c1ccc(F)cc1", "values": [
      {"measurement": "IC50", "setting": "[1]", "value": 80, "unit": "µM"}
    ]},
    {"smiles": "O=C(/C=C/C[N+]1([O-])CCC(O)(c2ccc(Cl)cc2)CC1)c1ccc(F)cc1", "note": "(centres undefined)", "values": [
      {"measurement": "IC50", "setting": "[1]", "value": 30, "unit": "µM"},
      {"measurement": "K inact", "setting": "[2]", "value": 4.33, "unit": "min⁻¹"},
      {"measurement": "K inact", "setting": "[3]", "value": 86, "unit": "min⁻¹"}
    ]},
    {"smiles": "O=C(C#CCN1CCC(O)(c2ccc(Cl)cc2)CC1)c1ccc(-c2ccccc2)cc1", "values": [
      {"measurement": "IC50", "setting": "[1]", "value": 100, "unit": "µM"}
    ]}
  ]
}
